Key:
MPK6 [1] = biological target: T1, MPK6 (Arabidopsis thaliana, UniProt Q39026); assay: biochemical; set-up: biolayer interferometry (Octet Red96), GST-tagged protein on probe, 25 °C, 1:1 model; details: read-out: kon (M^-1s^-1)
T1 construct: MPK6ΔNt (29 to 305)

MPK6 [2] = biological target: T1, MPK6; assay: biochemical; set-up: isothermal titration calorimetry, 25 °C, PBS pH 7.4, 2% DMSO
MPK6 [3] = biological target: T1, MPK6; assay: biochemical; set-up: biolayer interferometry (Octet Red96), GST-tagged protein on probe, 25 °C, 1:1 model; details: read-out: koff (s^-1)
MPK6 [4] = biological target: T1, MPK6; assay: BLI and ITC with recombinant MPK6; also in vitro kinase inhibition; format: binding
[5] = biological target: CA-MPK6 (constitutively active MPK6) (Arabidopsis thaliana, UniProt Q39026, D218G/E222A); assay: biochemical; format: binding
Sequence of CA-MPK6 (constitutively active MPK6) (Q39026 29-305 D218G/E222A limits assumed): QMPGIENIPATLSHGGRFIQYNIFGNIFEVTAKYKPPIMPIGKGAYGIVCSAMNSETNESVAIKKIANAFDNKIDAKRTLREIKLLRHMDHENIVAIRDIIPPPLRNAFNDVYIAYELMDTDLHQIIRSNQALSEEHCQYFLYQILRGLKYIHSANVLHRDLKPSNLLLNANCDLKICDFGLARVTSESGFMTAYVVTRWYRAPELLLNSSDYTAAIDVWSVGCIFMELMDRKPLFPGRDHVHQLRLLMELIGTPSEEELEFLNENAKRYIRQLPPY

T1 sequence (Q39026 29-305): as the sequence (Q39026 29-305 D218G/E222A limits assumed) above, with G190D, A194E counted along it

Kd (MPK6 [2])	Compound	kon (MPK6 [1])	koff (MPK6 [3])	Kd (MPK6 [4])	Kd [5]
1200 ± 300 nM	Nc1ncnc2c1ncn2[C@@H]1O[C@H](COP(=O)(O)OP(=O)(O)OP(=O)(O)O)[C@@H](O)[C@H]1O [ATP]	8920 M⁻¹ s⁻¹	0.0125 s⁻¹	–	–
–	O=P(O)(O)C(O)c1ccc2ccccc2c1 (stereo not shown) [compound 2, hydroxy-2-naphthalenymethylphosphonic acid]	3020 M⁻¹ s⁻¹	0.0175 s⁻¹	4.9 ± 0.6 µM	58 ± 13 µM

From paper PMC11797554, “Chemical genetics reveals cross-regulation of plant developmental signaling by the immune peptide-receptor pathway” (Science Advances, 2024)
